One experiment has as its system Met5A. Briefly: MTT viability assay (IC50). Type of experiment: cell-based, human. The note with it: ~60% confluency. From the text:
The following cell lines used in this study were obtained from ATCC, unless specified otherwise: Human T lymphoma cells Jurkat, human mesothelioma cells Meso-I, MM-BI, Ist-Mes, Ist-Mes-2 (Pass, H. I. et al. Characteristics of nine newly derived mesothelioma cell lines. Ann. Thorac. Surg. 59, 835-844 (1995)), human breast cancer cells MCF-7 (erbB2-low) and MDA-MB-453 (erbB2-high), human colorectal cells HCT-116, human hepatocarcinoma cells Huh-7, mouse mesothelioma cells AE17 (Jackaman, C. et al. IL-2 intratumoral immunotherapy enhances CD8+ T cells that mediate destruction of tumor cells and tumor-associated vasculature: a novel mechanism for IL-2. J. Immunol. 171, […] (2003), human non-malignant mesothelial cells Met-5A, […] (Claycomb, W. C. et al. HL-1 cells: a cardiac muscle cell line that contracts and retains phenotypic characteristics of the adult cardiomyocyte. Proc. Natl. Acad. Sci. USA 95, 2979-2984 […]) and H9c2, and the human endothelial-like cells EAhy926 (Edgell, C. J., McDonald, C. C. & Graham, J. B. Permanent cell line expressing human factor VIII-related antigen established by hybridization. Proc. Natl. Acad. Sci. USA 80, 3734-3737 (1983)). Jurkat cells were grown in the RPMI medium while DMEM was used for other malignant cell lines and for Met-5A cells, supplemented with 10% FCS and antibiotics. HL-1 cells, maintained in fibronectin/gelatine-coated dishes, were grown in the Claycomb medium supplemented with noradrenalin (Claycomb, W. C. et al. HL-1 cells: a cardiac muscle cell line that contracts and retains phenotypic characteristics of the adult cardiomyocyte. Proc. Natl. Acad. Sci. USA 95, 2979-2984 […]), EAhy926 cells were grown in complete DMEM supplemented with HAT (Edgell, C. J., McDonald, C. C. & Graham, J. B. Permanent cell line expressing human factor VIII-related antigen established by hybridization. Proc. Natl. Acad. Sci. USA 80, 3734-3737 (1983)). Cells deficient in mtDNA (ρ^0 phenotype) were prepared as detailed in Weber, T. et al., (Mitochondria play a central role in apoptosis induced by α-tocopheryl succinate, an agent with anticancer activity. Comparison with receptor-mediated pro-apoptotic signaling. Biochemistry 42, 4277-4291 (2003)). Acquisition of the ρ^0 phenotype was confirmed by lack of expression by the cells of the mtDNA-encoded cytochrome c oxidase subunit II (COXII not shown). Chinese hamster lung fibroblasts deficient in complex I (B10 cells) (See, B. B. et al. Molecular remedy of complex I defects: rotenone-insensitive internal NADH-quinone oxidoreductase of Saccharomyces cerevisiae mitochondria restores the NADH oxidase activity of complex I-deficient mammalian cells. Proc. Natl. Acad. Sci. USA 95, 9167-9171 (1998)) and complex II (CybL^−/−; B9 cells) (Oostveen, F. G., Au, H. C., Meijer, P. J. & Scheffler, I. E. A Chinese hamster mutant cell line with a defect in the integral membrane protein CII-3 of complex II of the mitochondrial electron transport chain. J. Biol. Chem. 270: 26104-26108 (1995)) as well as the parental cells (B1 cells) (Oostveen, F. G., Au, H. C., Meijer, P. J. & Scheffler, I. E. A Chinese hamster mutant cell line with a defect in the integral membrane protein CII-3 of complex II of the mitochondrial electron transport chain. J. Biol. Chem. 270: 26104-26108 (1995)) were grown in DMEM with 10% FCS, antibiotics, 10 mg/ml glucose and non-essential aminoacids.
Toxicity of α-TOS, VE11S (“VES”), MitoVE3S, MitoVE5S, MitoVE7S, MitoVE9S, MitoVE11S (“MitoVES”), MitoVE11AE (“MitoVEAE”), MitoVE11F (“MitoVEF”), MitoVE11M (“MitoVEM”), and VES4TPP towards cancer cells was assessed on the basis of IC50, as detailed in Turanek, J., et al. ((2008). Liposomal formulation of vitamin E analogs as an efficient and selective anti-cancer treatment. Clin. Cancer Res. (submitted)). […]

A further experiment deals with adherent MCF7 cells. Briefly: ROS production by flow cytometry, adherent cells (FIG. 8). The experiment is classed as cell-based, human. Conditions: 3 h; α-TOS 50 μM, MitoVES homologues 5 μM. The procedure:
Adherent MCF7 cells and the corresponding mammosphere cells (MS) were cultured and assessed for morphological changes by microscopy (A) and for expression levels of markers as indicators of “sternness” by RT-PCR (B) and flow cytometry (C), including the expression of CD44 and CD24 (D). The adherent MCF7 cells (E) and the MS cells (F) were treated with 5 μM MitoVES, 50 μM α-TOS or 10 μM parthenolide and assessed for their sensitivity to drug induced cell death. […] Adherent MCF7 cells (I) and MS cells (J) were treated for 3 h with α-TOS (50 μM) or MitoVES homologues containing different lengths in the aliphatic side chain (5 μM each, either 11, 7 or 5 carbon chain in length) and the treated cells assessed for production of reactive oxygen species (ROS) by flow cytometry.
Cellular ROS were detected indirectly by flow cytometry and directly by electron paramagnetic resonance (EPR) spectroscopy, following treatment of cells with α-TOS as indicated in the Legend to Figures. […] For indirect evaluation, cells were treated with α-TOS and reacted with dihydrodichlorofluorescein diacetate (DCF; Molecular Probes) for 30 min, and scored by flow cytometry for cells with high fluorescence, which was evaluated on the bases on increase in mean fluorescence intensity. […]
(Flow cytometry measures light scatter and fluorescence of single cells or particles in a stream.)

As a reminder, the IC50 is the concentration at which inhibition is half-maximal.

Each structure is given as a SMILES string.

`Cc1c(C)c2c(c(C)c1OC(=O)CCC(=O)[O-])CCC(C)(CCCCCCCCCCC[P+](c1ccccc1)(c1ccccc1)c1ccccc1)O2` (stereo not shown) [MitoVE11S] displayed a concentration for half-maximal inhibition (IC50) in the experiment with Met5A of 21 ± 4 µM. Besides, in the experiment with adherent MCF7 cells, the “ROS production in adherent MCF7 cells” value is given as “greater ROS accumulation”.
As for `Cc1c(C)c2c(c(C)c1OC(=O)CCC(=O)O)CC[C@@](C)(CCC[C@H](C)CCC[C@H](C)CCCC(C)C)O2` [α-TOS, α-tocopheryl succinate, reference compound], the IC50 with Met5A stood at 69 ± 8 µM. In the experiment with adherent MCF7 cells, the “ROS production in adherent MCF7 cells” value is “significant production of ROS”.

(Values after patent US8598145B2, “Mitochondrially delivered anti-cancer compounds” (priority 2008, dated 2013).)
